Test results from ChEMBL document CHEMBL5390252, “Imidazo[2,1-b]thiazole based indoleamine-2,3-dioxygenase 1 (IDO1) inhibitor: Structure based design, synthesis, bio-evaluation and docking studies” (Bioorg Med Chem Lett, 2023).

Test system: HEK293
Experiment: Cytotoxicity against HEK293 cells assessed as reduction in cell viability at 100 uM measured after 24 hrs by alamar blue assay relative to control
Type: toxicity, cell-based
Settings: human, hek293, 24 h

With `CC(C)(C)Nc1c(-c2ccc(-c3ccccc3)cc2)nc2sccn12` the Activity was ~ 85%.

Biological target: T1, Indoleamine 2,3-dioxygenase 1 (Homo sapiens, UniProt P14902)
Settings: dose 1.0 mM
Target sequence in this assay (P14902 whole entry, looked up): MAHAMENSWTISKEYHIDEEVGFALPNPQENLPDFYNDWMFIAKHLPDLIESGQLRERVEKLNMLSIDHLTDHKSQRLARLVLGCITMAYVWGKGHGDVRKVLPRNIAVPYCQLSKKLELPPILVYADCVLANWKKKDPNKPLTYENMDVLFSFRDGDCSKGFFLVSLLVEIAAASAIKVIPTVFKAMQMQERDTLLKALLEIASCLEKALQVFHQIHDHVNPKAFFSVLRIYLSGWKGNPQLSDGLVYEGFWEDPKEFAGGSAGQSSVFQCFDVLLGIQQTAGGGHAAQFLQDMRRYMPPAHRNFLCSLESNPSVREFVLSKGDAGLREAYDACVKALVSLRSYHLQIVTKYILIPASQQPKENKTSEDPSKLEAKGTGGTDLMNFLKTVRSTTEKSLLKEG

`c1ccc2c(c1)[nH]c1cnccc12` gave an inhibition of 17%.

Biological target: T1, Indoleamine 2,3-dioxygenase 1
Experiment: Inhibition of human IDO1 using L-tryptophan as substrate assessed as reduction in N-formyl kynurenine formation at 200 uM by UV-visible spectroscopic analysis relative to control
Settings: not given
Target sequence in this assay (P14902 whole entry, looked up): as above

Work on `C[C@H]1c2[nH]c3ccccc3c2C[C@]2(C)C(=O)N(C)C(=S)N12` yielded an inhibition of 29%.

Biological target: T1, Indoleamine 2,3-dioxygenase 1
Experiment: Inhibition of human IDO1 using L-tryptophan as substrate assessed as reduction in N-formyl kynurenine formation by UV-visible spectroscopic analysis
Settings: not given
Target sequence in this assay (P14902 whole entry): as the sequence (P14902 whole entry, looked up) above

Compared with `COc1ccc(-c2nc3cc(C)ccn3c2NC(C)(C)C)cc1O`, `COc1ccc(-c2nc3sccn3c2NC(C)(C)C)cc1O` is 22-fold lower in IC50: 287 µM for the first, 13 µM for the second.

First: CC(C)(C)Nc1c(-c2ccccc2)nc2sccn12
Second: CC(C)(C)CC(C)(C)Nc1c(-c2ccccc2)nc2sccn12
The IC50 of the first is 11-fold lower: 43 µM for the first, 465 µM for the second.

First: CC(C)(C)Nc1c(-c2ccc(-c3ccccc3)cc2)nc2sccn12
Second: CC(C)(C)CC(C)(C)Nc1c(-c2ccc(-c3ccccc3)cc2)nc2sccn12
The IC50 of the first is 2-fold lower: 23 µM for the first, 47 µM for the second.

First: O[C@H](c1c(C2CC2)c(Cl)cc2cncn12)C1CC2CCC1CC2 (stereo partly specified)
Second: COc1ccc(-c2nc3sccn3c2NCCN2CCOCC2)cc1O
The IC50 of the first is 7600-fold lower: 0.0096 µM for the first, 73 µM for the second. The first is the more potent here.

Going from `COc1ccc(-c2nc3sccn3c2NC(C)(C)CC(C)(C)C)cc1O` to `CC(C)(C)CC(C)(C)Nc1c(-c2cccc(C#N)c2)nc2sccn12`, the IC50 rises from 25 µM to 477 µM (19-fold). The first is the more potent here.

Going from `Cc1n[nH]c2c1[C@@H](c1ccc(F)c(F)c1)c1c(N)n[nH]c1O2` to `CC(C)(C)Nc1c(-c2ccc3c(c2)OCO3)nc2sccn12`, the IC50 rises from 0.151 µM to 1450 µM (9600-fold).

Going from `O=C(Cc1ccccc1)Nc1ccc(CCOc2ccccc2-c2cnc[nH]2)cc1` to `c1ccc(-c2ccc(-c3nc4sccn4c3NCCN3CCOCC3)cc2)cc1`, the IC50 rises from 0.028 µM to 106 µM (3800-fold).

`CC(C)(C)CC(C)(C)Nc1c(-c2ccc(C(F)(F)F)cc2)nc2sccn12` and `CC(C)(C)Nc1c(-c2ccc(C(F)(F)F)cc2)nc2sccn12` are within 1.5-fold of each other in IC50: 1020 µM for the first, 1290 µM for the second.

`CC(C)(C)CC(C)(C)Nc1c(-c2ccncc2)nc2sccn12` and `CC(C)(C)Nc1c(-c2ccncc2)nc2sccn12` are within 1.5-fold of each other in IC50: 691 µM for the first, 908 µM for the second.

First: COc1cccc(-c2nc3sccn3c2NC(C)(C)C)c1
Second: O=S(=O)(Nc1cccc2cnccc12)c1ccc2c(c1)OCCO2
The IC50 of the first is 5000-fold higher: 281 µM for the first, 0.056 µM for the second. The second is the more potent here.

Test system: not listed separately
Experiment: Cytotoxicity against HEK293 cells assessed as cell viability at 10 to 100 uM measured after 24 hrs by alamar blue assay relative to control
Type: toxicity, cell-based
Settings: human, dose 10-100 µM, read-out: Activity

In the case of `COc1ccc(-c2nc3sccn3c2NC(C)(C)C)cc1O`, the viability at 24 h, up to 100 µM is reported as 100%.

Test system: not listed separately
Experiment: Cytotoxicity against HEK293 cells assessed as cell viability at 10 to 50 uM measured after 24 hrs by alamar blue assay relative to control
Type: toxicity, cell-based
Settings: human, dose 10-50 µM, read-out: Activity

Compound `CC(C)(C)Nc1c(-c2ccc(-c3ccccc3)cc2)nc2sccn12` has a viability at 24 h, up to 50 µM of 100%.

Biological target: T1, Indoleamine 2,3-dioxygenase 1
Experiment: Inhibition of human IDO1 using L-tryptophan as substrate assessed as reduction in N-formyl kynurenine formation by measuring inhibition constant by UV-visible spectroscopic analysis
Settings: not given
Target sequence in this assay (P14902 whole entry): as the sequence (P14902 whole entry, looked up) above

Work on `CCNCCc1c[nH]c2c1C(=O)C(c1cccnc1)=CC2=O` yielded a Ki of 0.16 µM.
